Measured values taken from patent US6831083B2, “Pyrazoline derivative or tetrahydropyridazine derivative and medicinal use thereof” (Mitsui Chemicals, Inc., priority 2000, dated 2004).
Marks after values point to notes of the source that are not given here.

Assays:
[1] = molecular target: T1, rat GLT-1 (Rattus norvegicus, UniProt P31596); experiment: Activating action for glia type glutamic acid transporter (GLT-1): [3H]-glutamate intake in COS-7 cells; assay type: cell-based; conditions: test compound 100 μM, treated from 1 hour before [3H]-glutamate (2 μM), 3 min uptake; COS-7 cells expressing rat GLT-1; percentage relative to solvent-treated group
T1 construct: expressed in transfected cells; host or cells: COS-7 cells
Experimental: Test Example 1 Activating Action for Glia Type Glutamic Acid Transporter (GLT-1)
Activating action for GLT-1 was evaluated by a test using COS-7 cells into which rat GLT-1 had been introduced. To COS-7 cells capable of expressing GLT-1 was added a [^3H]-glutamate-containing KRH solution (200 μl, final concentration: 2 μM). 3 minutes later, the ^3H amount was measured using a scintillation counter. A test compound (100 μM) was dissolved in the KRH solution and a treatment was conducted from 1 hour before the addition of [^3H]-glutamate. The action of the test compound for intake of glutamic acid was expressed as a percentage relative to the glutamic acid intake ability of solvent-treated group.
Glutamic acid intake (%)=[test compound (dpm)/control (dpm)]×100
This test was conducted based on a method by Shimada et al. [Eur. J. Pharmacol., 386, 263-270 ([…])].

[2] = test system: rat models of middle cerebral artery obstruction; experiment: Action for cerebral infarct caused by middle cerebral artery obstruction in rat; assay type: in vivo; conditions: male SD rats, left MCA obstruction, brain taken 24 hours after obstruction, TTC
Experimental: Test Example 2 Action for Cerebral Infarct Caused by Middle Cerebral Artery Obstruction in Rat
Preparation of rat models having middle cerebral artery obstruction was conducted according to a method of Tamura et al. [J. Cerebral Blood Flow and Metabolism, 53-60 (1981)]. Specifically, 9 to 10 week-old male SD strain rats were used and their left middle cerebral arteries were obstructed under anesthesia by […] halosen. The compound of Example 5 or 26 was used as a test compound. The compound of Example 5 was intravenously administered in a dosage of 10 mg/kg for 24 hours from right after the obstruction; and the compound of Example 26 was intraperitoneally administered in a dosage of 50 mg/kg right after the obstruction and 6 hours after the obstruction. The brain of each rat was taken out 24 hours after the obstruction of rat middle cerebral artery, was divided into 6 parts, and was dyed with TTC. The section of each dyed part was photographed, and the focus of cerebral infarct was measured using an image analyzer. The rats in control group were as well subjected to middle cerebral artery obstruction.

[3] = test system: ddy mice; experiment: Toxicity test in ddy mice; assay type: in vivo; conditions: 100 mg/kg (i. p.), 24 hours after administration
Experimental: Test Example 3 Toxicity Test
A test compound was administered into ddy mice to investigate its toxicity. The test compound was intraperitoneally administered in a dosage of 100 mg/kg; the mortality rate of the mice 24 hours after the administration was examined; and the toxicity of the test compound was evaluated from the mortality rate.

T1 sequence (P31596 whole entry): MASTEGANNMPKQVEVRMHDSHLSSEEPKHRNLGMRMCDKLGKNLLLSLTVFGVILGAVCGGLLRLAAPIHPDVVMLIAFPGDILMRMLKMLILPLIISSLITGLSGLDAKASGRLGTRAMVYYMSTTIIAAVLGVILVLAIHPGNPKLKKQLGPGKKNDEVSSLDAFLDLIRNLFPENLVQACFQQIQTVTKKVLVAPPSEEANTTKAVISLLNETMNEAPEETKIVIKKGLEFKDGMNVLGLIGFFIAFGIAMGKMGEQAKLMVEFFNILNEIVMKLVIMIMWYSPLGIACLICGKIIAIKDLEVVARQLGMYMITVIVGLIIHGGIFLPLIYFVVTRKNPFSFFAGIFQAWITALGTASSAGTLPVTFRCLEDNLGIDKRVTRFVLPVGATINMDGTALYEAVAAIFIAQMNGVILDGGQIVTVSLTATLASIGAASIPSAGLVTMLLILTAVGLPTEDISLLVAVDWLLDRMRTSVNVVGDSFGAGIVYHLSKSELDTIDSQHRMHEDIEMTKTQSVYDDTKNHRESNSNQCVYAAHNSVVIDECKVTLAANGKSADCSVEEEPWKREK

| SMILES | Glutamic acid intake (%) [1] [%] | melting point [°C] | other results |
| --- | --- | --- | --- |
| O=C(c1cccnc1)N1CCCC(c2ccccc2)=N1 [Example 1, 1-nicotinoyl-3-phenyl-1,4,5,6-tetrahydropyridazine] | 136 |  |  |
| O=C(c1cnccn1)N1CCCC(c2ccccc2)=N1 [Example 2, 1-(2-Pyrazinoyl)-3-phenyl-1,4,5,6-tetrahydropyridazine] | 126 |  |  |
| CS(=O)(=O)O.O=C(c1cccnc1)N1CCC(c2ccccc2)=N1 [Example 5, 1-nicotinoyl-3-phenyl-2-pyrazoline methanesulfonate] | 145 |  | Focus of cerebral infarct (mm^3) ([2]; 10 mg/kg intravenously for 24 hours from right after obstruction, control group 224.4 ± 71.5): 131.7 ± 51.6** mm^3; Mortality rate (%) [3]: 0% |
| O=C(c1cccnc1)N1CCC(c2ccc(F)cc2)=N1 [Example 7, 1-nicotinoyl-3-(4-fluorophenyl)-2-pyrazoline] | 143 | 128 to 130 |  |
| O=C(c1cccnc1)N1CCC(c2ccccc2F)=N1 [Example 8, 1-nicotinoyl-3-(2-fluorophenyl)-2-pyrazoline] | 134 |  |  |
| O=C(c1cccnc1)N1CCC(c2ccc(Br)cc2)=N1 [Example 9, 1-nicotinoyl-3-(4-bromophenyl)-2-pyrazoline] | 138 |  |  |
| O=C(c1cccnc1)N1CCC(c2ccc(Cl)cc2)=N1 [Example 10, 1-nicotinoyl-3-(4-chlorophenyl)-2-pyrazoline] | 135 |  |  |
| O=C(c1cccnc1)N1CCC(c2cccc(Cl)c2)=N1 [Example 11, 1-nicotinoyl-3-(3-chlorophenyl)-2-pyrazoline] | 140 | 124 to 126 |  |
| O=C(c1cccnc1)N1CCC(c2ccccc2Cl)=N1 [Example 12, 1-nicotinoyl-3-(2-chlorophenyl)-2-pyrazoline] | 134 |  |  |
| COc1ccc(C2=NN(C(=O)c3cccnc3)CC2)cc1 [Example 13, 1-nicotinoyl-3-(4-methoxyphenyl)-2-pyrazoline] | 129 | 132 to 134 |  |
| COc1ccccc1C1=NN(C(=O)c2cccnc2)CC1 [Example 14, 1-nicotinoyl-3-(2-methoxyphenyl)-2-pyrazoline] | 124 | 130 to 132 |  |
| COc1ccccc1C1=NN(C(=O)c2cccnc2)CC1C (stereo not shown) [Example 15, 1-nicotinoyl-3-(2-methoxyphenyl)-4-methyl-2-pyrazoline] | 134 | 124 to 125 |  |
| COc1ccc(C2=NN(C(=O)c3cccnc3)CC2)c(OC)c1 [Example 16, 1-nicotinoyl-3-(2,4-dimethoxyphenyl)-2-pyrazoline] | 126 | 112 to 113 |  |
| CCOc1ccc(C2=NN(C(=O)c3cccnc3)CC2)cc1 [Example 17, 1-nicotinoyl-3-(4-ethoxyphenyl)-2-pyrazoline] | 129 | 124 to 125 |  |
| CCOc1ccccc1C1=NN(C(=O)c2cccnc2)CC1 [Example 18, 1-nicotinoyl-3-(2-ethoxyphenyl)-2-pyrazoline] |  | 155 to 157 |  |
| Cc1ccc(C2=NN(C(=O)c3cccnc3)CC2)cc1 [Example 19, 1-nicotinoyl-3-(4-methylphenyl)-2-pyrazoline] | 131 | 100 to 102 |  |
| Cc1cccc(C2=NN(C(=O)c3cccnc3)CC2)c1 [Example 20, 1-nicotinoyl-3-(3-methylphenyl)-2-pyrazoline] | 134 | 99 to 100 |  |
| Cc1ccccc1C1=NN(C(=O)c2cccnc2)CC1 [Example 21, 1-nicotinoyl-3-(2-methylphenyl)-2-pyrazoline] | 129 |  |  |
| Cc1ccc(C2=NN(C(=O)c3cccnc3)CC2)c(C)c1 [Example 22, 1-nicotinoyl-3-(2,4-dimethylphenyl)-2-pyrazoline] |  | 102 to 104 |  |
| O=C(c1cccnc1)N1CCC(c2ccccc2C(F)(F)F)=N1 [Example 23, 1-nicotinoyl-3-(2-trifluoromethylphenyl)-2-pyrazoline] | 128 |  |  |
| O=C(c1cccnc1)N1CCC(c2ccc([N+](=O)[O-])cc2)=N1 [Example 24, 1-nicotinoyl-3-(4-nitrophenyl)-2-pyrazoline] | 130 | 175 to 177 |  |
| O=C(c1cccnc1)N1CCC(c2ccccc2[N+](=O)[O-])=N1 [Example 25, 1-nicotinoyl-3-(2-nitrophenyl)-2-pyrazoline] |  | 123 to 125 |  |
| O=C(c1cccnc1)N1CC2COc3ccccc3C2=N1 (stereo not shown) [Example 26, 2-nicotinoyl-3,3a-dihydro-2H,4H-[1]-benzopyrano[4,3-c]pyrazole] | 131 |  | Focus of cerebral infarct (mm^3) ([2]; 50 mg/kg intraperitoneally right after and 6 hours after obstruction, control group 188.0 ± 54.8): 135.9 ± 30.5* mm^3; Mortality rate (%) [3]: 0% |
| O=C(c1cccnc1)N1CC2COc3cc(Cl)ccc3C2=N1 (stereo not shown) [Example 31, 2-nicotinoyl-7-chloro-3,3a-dihydro-2H,4H-[1]-benzopyrano[4,3-c]pyrazole] | 125 |  |  |
| O=C(c1cnccn1)N1CC2CSc3ccccc3C2=N1 (stereo not shown) [Example 40, 2-(2-pyrazinoyl)-3,3a-dihydro-2H,4H-[1]-benzothiopyrano-[4,3-c]pyrazole] |  | 190 to 192 |  |
| O=C(c1cnccn1)N1CC2CS(=O)(=O)c3ccccc3C2=N1 (stereo not shown) [Example 42, 2-(2-pyrazinoyl)-3,3a-dihydro-2H,4H-[1]-benzothiopyrano-[4,3-c]pyrazole-S-dioxide] | 125 |  |  |
